These results are taken from ChEMBL document CHEMBL1144316, “Synthesis and biological activity evaluation of lignan lactones derived from (-)-cubebin” (2005).

In this assay the test system is Rattus norvegicus. Description: Percentage inhibition of edema formation in rat after 3 hours of treatment with the compound at a dosage of 30 mg/Kg. Type of assay: functional.

SMILES strings stand for the structures.

A word on the inhibition in vivo: it is the share of the control response that was lost under treatment. The low end stands for little suppression, the high end for strong suppression. `Nc1cc2c(cc1C[C@@H]1COC(=O)[C@H]1Cc1cc3c(cc1N)OCO3)OCO2` yielded an inhibition in vivo at 30 mg/kg of 82%. The value for `O=C1OC[C@@H](Cc2cc3c(cc2[N+](=O)[O-])OCO3)[C@@H]1Cc1cc2c(cc1[N+](=O)[O-])OCO2` was 54%; that for `O=C1OC[C@@H](Cc2ccc3c(c2)OCO3)[C@@H]1Cc1ccc2c(c1)OCO2` was 63%; that for `OC1OC[C@@H](Cc2ccc3c(c2)OCO3)[C@@H]1Cc1ccc2c(c1)OCO2` (some centres undefined) was 53%.
